Test systems include NCI-H226 lung; ACHN renal; SF-295 CNS; SNB-19 CNS; M14 melanoma; CAKI-1 renal; HOP-92 NSCLC; MALME-3M melanoma; OVCAR-3 ovarian; HCT-15 colon.
What all share (assay): inhibition of tumour cell growth, NCI panel, 48 h

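Five compound concentrations were applied to cells in 96-well plates for 48 hours; endpoints were derived by simple linear interpolation of the resulting dose-response curve. Here, GI50 denotes the concentration required for 50% inhibition of growth. TGI marks complete inhibition of growth.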

As for `CC(=O)OCCc1cccnc1/C=N/O`, the TGI in the test on NCI-H226 lung, in the test with ACHN renal, in the test with SF-295 CNS, in the test with SNB-19 CNS, in the test with M14 melanoma and with CAKI-1 renal was above 100 µM each time. Moreover, the TGI in the test with HOP-92 NSCLC, with MALME-3M melanoma, with OVCAR-3 ovarian and in the test on HCT-15 colon was above 100 µM in each case.
As to `Cc1c(C(=O)/C=C/c2cccc3ccccc23)[n+](=O)c2ccccc2n1[O-]`, the TGI in the test on NCI-H226 lung is 27.9 µM; in the test on ACHN renal, 29.4 µM; with SF-295 CNS, 29.7 µM; in the test on SNB-19 CNS, 29.7 µM; in the test on M14 melanoma it was 26.9 µM; in the test on CAKI-1 renal, 21.8 µM. The TGI turned out to be 22.5 µM in the test on HOP-92 NSCLC, 34.9 µM with MALME-3M melanoma, 22.7 µM with OVCAR-3 ovarian and 27 µM with HCT-15 colon.
Turning to `N#Cc1cnn2ccn(C3OC(COC(=O)c4ccccc4)C(OC(=O)c4ccccc4)C3OC(=O)c3ccccc3)c12` (stereo not given), the TGI in the test with NCI-H226 lung was above 21.5 µM; in the test with ACHN renal, above 21.5 µM; in the test on SF-295 CNS it was above 21.5 µM; with SNB-19 CNS it was above 21.5 µM; in the test with M14 melanoma it was above 21.5 µM; in the test on CAKI-1 renal, 21.5 µM. Further, the TGI with HOP-92 NSCLC was above 31.6 µM; with MALME-3M melanoma it was above 21.5 µM; in the test on OVCAR-3 ovarian, above 21.5 µM; in the test on HCT-15 colon, above 21.5 µM.
As to `CN(C)c1ccc2c(c1)oc(=O)c1ccccc12`, the TGI in the test on NCI-H226 lung was found to be 31.9 µM; in the test on ACHN renal, 44.6 µM; in the test with SF-295 CNS it was 48.2 µM; in the test with SNB-19 CNS, 28.3 µM; with M14 melanoma, 26.5 µM; with CAKI-1 renal, 26.1 µM. In addition, the TGI in the test on HOP-92 NSCLC was 30 µM; in the test on MALME-3M melanoma, 24.5 µM; in the test on OVCAR-3 ovarian, 16.4 µM; in the test on HCT-15 colon, 27 µM.
On to `ClCc1ccccc1CSc1ncnc2nc[nH]c12`, for which the GI50 in the test with NCI-H226 lung, with ACHN renal, in the test with SF-295 CNS, with SNB-19 CNS, with M14 melanoma and in the test on CAKI-1 renal was above 60 µM in each case. Further, the GI50 in the test with HOP-92 NSCLC, in the test on MALME-3M melanoma, in the test with OVCAR-3 ovarian and with HCT-15 colon was above 60 µM in each case. For the same compound, the TGI in the test with NCI-H226 lung, with ACHN renal, in the test with SF-295 CNS, with SNB-19 CNS, with M14 melanoma and in the test with CAKI-1 renal was above 60 µM each time. In addition, the TGI in the test with HOP-92 NSCLC, in the test on MALME-3M melanoma, in the test with OVCAR-3 ovarian and in the test on HCT-15 colon was above 60 µM throughout.
As for `CC(=O)c1ccc(N(/C=C/C(=O)C(F)(F)F)CC(=O)c2ccc(Cl)c(Cl)c2)cc1`, the GI50 in the test on NCI-H226 lung was 10.9 µM; in the test on ACHN renal it was 14.4 µM; in the test with SF-295 CNS it was 12.3 µM; in the test with SNB-19 CNS, 19.3 µM; with M14 melanoma, 13.3 µM; with CAKI-1 renal, 16.4 µM. In addition, the GI50 was 13.5 µM in the test on HOP-92 NSCLC, 11.7 µM in the test with MALME-3M melanoma, 13.9 µM in the test with OVCAR-3 ovarian and 13.4 µM in the test on HCT-15 colon. Further, the TGI came to 27.3 µM in the test with NCI-H226 lung; 27.7 µM in the test on ACHN renal; 26.2 µM in the test on SF-295 CNS; 41.6 µM with SNB-19 CNS; 26.7 µM in the test on M14 melanoma; 33.1 µM in the test on CAKI-1 renal. In addition, the TGI with HOP-92 NSCLC was determined as 29 µM; in the test on MALME-3M melanoma, 25 µM; in the test with OVCAR-3 ovarian, 27.5 µM; in the test on HCT-15 colon, 29.2 µM.
In the case of `O=C(Nc1ccccc1[N+](=O)[O-])c1ccccc1`, the TGI in the test on NCI-H226 lung, in the test with ACHN renal, in the test on SF-295 CNS, with SNB-19 CNS, in the test on M14 melanoma and with CAKI-1 renal was above 100 µM throughout. For the same compound, the TGI with HOP-92 NSCLC, with MALME-3M melanoma, in the test with OVCAR-3 ovarian and in the test on HCT-15 colon was above 100 µM throughout.
As for `NS(=O)(=O)c1ccc(-n2nc(-c3ccc(Br)cc3)ccc2=O)cc1`, the GI50 in the test with NCI-H226 lung, with ACHN renal, with SF-295 CNS, in the test on SNB-19 CNS, in the test on M14 melanoma and with CAKI-1 renal was above 10 µM throughout. The GI50 with HOP-92 NSCLC was above 10 µM; in the test on MALME-3M melanoma, 7.71 µM; with OVCAR-3 ovarian, above 10 µM; with HCT-15 colon, above 10 µM. Moreover, the TGI in the test with NCI-H226 lung, with ACHN renal, in the test with SF-295 CNS, in the test with SNB-19 CNS, in the test with M14 melanoma and in the test with CAKI-1 renal was above 10 µM each time. In addition, the TGI in the test on HOP-92 NSCLC, in the test on MALME-3M melanoma, in the test on OVCAR-3 ovarian and in the test with HCT-15 colon was above 10 µM throughout.
Take `O=C1c2ccccc2C(=O)c2c1ccc1[nH]c(CCl)nc21`: the GI50 is 2.56 µM in the test on NCI-H226 lung; 2.27 µM in the test on ACHN renal; 7.99 µM with SF-295 CNS; 3.52 µM in the test on SNB-19 CNS; 9.97 µM in the test with M14 melanoma; 2.61 µM in the test on CAKI-1 renal. The GI50 with HOP-92 NSCLC is 1.58 µM; in the test on MALME-3M melanoma it was 2.82 µM; in the test with OVCAR-3 ovarian it was 1.64 µM; in the test on HCT-15 colon it was 1.45 µM. For the same compound, the TGI is 7.96 µM with NCI-H226 lung; 6.49 µM with ACHN renal; 20.6 µM in the test with SF-295 CNS; 13.6 µM in the test on SNB-19 CNS; 22.8 µM in the test on M14 melanoma; 9.89 µM in the test with CAKI-1 renal. The TGI is 6.26 µM in the test with HOP-92 NSCLC, 10.9 µM with MALME-3M melanoma, 3.03 µM in the test with OVCAR-3 ovarian and 3.1 µM in the test with HCT-15 colon.

Values taken from PubChem BioAssay (NCI).
